# Experiment: Sensory evaluation of Vermont drink containing the agent
# Settings: ten panels
# Protocol: Water was added to a mixture of 10 g of apple-cider vinegar (acetic acid: 4.8%), 3 g of honey, 7 g of fructose-glucose liquid sugar mixed with sugar, 0.02 g of citric acid, 0.002 g of trisodium citrate, and 0.1 g of a Vermont flavor (manufactured by T. Hasegawa Co., Ltd.) to give a total amount of 100 mL. To the resulting mixture was added (Z,Z)-4,7-tridecadienal as the acid taste and/or acid smell-reducing agent of the present invention in concentrations shown in the following Table 1 to give Vermont drinks containing the agent.
# Sensory evaluation of each drink was carried out by ten panels. […] The piercing aroma characteristic to aldehydes is a characteristic aroma common to every aldehyde and refers to an irritant off-smell giving an image of deteriorated oils and fats, soap, metals, Houttuynia cordata, etc. The judgment of smell was performed by comparing the effects at different concentrations of the acid taste and/or acid smell-reducing agent, and a concentration giving the highest acid taste/acid smell quality was selected. […]
smiles,measurement,setting,value
"CCCCC/C=C/C/C=C/CCC=O [(E,E)-4,7-tridecadienal]","A: number of panels, acid taste/acid smell extreme and cause irritation",0.005 ppt,10
same,"B: number of panels, acid taste/acid smell slightly strong and slightly cause irritation",0.005 ppt,0
same,"C: number of panels, acid taste/acid smell slightly unpleasant",0.005 ppt,0
same,Flavor judgment: number of panels who judged acid taste/acid smell quality the highest,0.005 ppt,0
same,"N: number of panels, irritation of acid reduced to give a mild acid taste",0.005 ppt,0
same,"X: number of panels, acid taste reduced but piercing odor characteristic to aldehydes unpleasant",0.005 ppt,0
same,"A: number of panels, acid taste/acid smell extreme and cause irritation",0.02 ppt,10
same,"B: number of panels, acid taste/acid smell slightly strong and slightly cause irritation",0.02 ppt,0
same,"C: number of panels, acid taste/acid smell slightly unpleasant",0.02 ppt,0
same,Flavor judgment: number of panels who judged acid taste/acid smell quality the highest,0.02 ppt,0
same,"N: number of panels, irritation of acid reduced to give a mild acid taste",0.02 ppt,0
same,"X: number of panels, acid taste reduced but piercing odor characteristic to aldehydes unpleasant",0.02 ppt,0
same,"A: number of panels, acid taste/acid smell extreme and cause irritation",0.1 ppt,10
same,"B: number of panels, acid taste/acid smell slightly strong and slightly cause irritation",0.1 ppt,0
same,"C: number of panels, acid taste/acid smell slightly unpleasant",0.1 ppt,0
same,Flavor judgment: number of panels who judged acid taste/acid smell quality the highest,0.1 ppt,0
same,"N: number of panels, irritation of acid reduced to give a mild acid taste",0.1 ppt,0
same,"X: number of panels, acid taste reduced but piercing odor characteristic to aldehydes unpleasant",0.1 ppt,0
same,"A: number of panels, acid taste/acid smell extreme and cause irritation",0.2 ppt,8
same,"B: number of panels, acid taste/acid smell slightly strong and slightly cause irritation",0.2 ppt,2
same,"C: number of panels, acid taste/acid smell slightly unpleasant",0.2 ppt,0
same,Flavor judgment: number of panels who judged acid taste/acid smell quality the highest,0.2 ppt,0
same,"N: number of panels, irritation of acid reduced to give a mild acid taste",0.2 ppt,0
same,"X: number of panels, acid taste reduced but piercing odor characteristic to aldehydes unpleasant",0.2 ppt,0
same,"A: number of panels, acid taste/acid smell extreme and cause irritation",0.5 ppt,6
same,"B: number of panels, acid taste/acid smell slightly strong and slightly cause irritation",0.5 ppt,2
same,"C: number of panels, acid taste/acid smell slightly unpleasant",0.5 ppt,2
same,Flavor judgment: number of panels who judged acid taste/acid smell quality the highest,0.5 ppt,0
same,"N: number of panels, irritation of acid reduced to give a mild acid taste",0.5 ppt,0
same,"X: number of panels, acid taste reduced but piercing odor characteristic to aldehydes unpleasant",0.5 ppt,0
same,"A: number of panels, acid taste/acid smell extreme and cause irritation",1 ppb,0
same,"B: number of panels, acid taste/acid smell slightly strong and slightly cause irritation",1 ppb,0
same,"C: number of panels, acid taste/acid smell slightly unpleasant",1 ppb,3
same,Flavor judgment: number of panels who judged acid taste/acid smell quality the highest,1 ppb,0
same,"N: number of panels, irritation of acid reduced to give a mild acid taste",1 ppb,4
same,"X: number of panels, acid taste reduced but piercing odor characteristic to aldehydes unpleasant",1 ppb,3
same,"A: number of panels, acid taste/acid smell extreme and cause irritation",1 ppt,0
same,"B: number of panels, acid taste/acid smell slightly strong and slightly cause irritation",1 ppt,4
same,"C: number of panels, acid taste/acid smell slightly unpleasant",1 ppt,5
same,Flavor judgment: number of panels who judged acid taste/acid smell quality the highest,1 ppt,0
same,"N: number of panels, irritation of acid reduced to give a mild acid taste",1 ppt,1
same,"X: number of panels, acid taste reduced but piercing odor characteristic to aldehydes unpleasant",1 ppt,0
same,"A: number of panels, acid taste/acid smell extreme and cause irritation",5 ppt,0
same,"B: number of panels, acid taste/acid smell slightly strong and slightly cause irritation",5 ppt,1
same,"C: number of panels, acid taste/acid smell slightly unpleasant",5 ppt,3
same,Flavor judgment: number of panels who judged acid taste/acid smell quality the highest,5 ppt,4
same,"N: number of panels, irritation of acid reduced to give a mild acid taste",5 ppt,6
same,"X: number of panels, acid taste reduced but piercing odor characteristic to aldehydes unpleasant",5 ppt,0
same,"A: number of panels, acid taste/acid smell extreme and cause irritation",10 ppb,0
same,"B: number of panels, acid taste/acid smell slightly strong and slightly cause irritation",10 ppb,0
same,"C: number of panels, acid taste/acid smell slightly unpleasant",10 ppb,1
same,Flavor judgment: number of panels who judged acid taste/acid smell quality the highest,10 ppb,0
same,"N: number of panels, irritation of acid reduced to give a mild acid taste",10 ppb,3
same,"X: number of panels, acid taste reduced but piercing odor characteristic to aldehydes unpleasant",10 ppb,6
same,"A: number of panels, acid taste/acid smell extreme and cause irritation",20 ppt,0
same,"B: number of panels, acid taste/acid smell slightly strong and slightly cause irritation",20 ppt,0
same,"C: number of panels, acid taste/acid smell slightly unpleasant",20 ppt,3
same,Flavor judgment: number of panels who judged acid taste/acid smell quality the highest,20 ppt,3
same,"N: number of panels, irritation of acid reduced to give a mild acid taste",20 ppt,7
same,"X: number of panels, acid taste reduced but piercing odor characteristic to aldehydes unpleasant",20 ppt,0
same,"A: number of panels, acid taste/acid smell extreme and cause irritation",50 ppb,0
same,"B: number of panels, acid taste/acid smell slightly strong and slightly cause irritation",50 ppb,0
same,"C: number of panels, acid taste/acid smell slightly unpleasant",50 ppb,0
same,Flavor judgment: number of panels who judged acid taste/acid smell quality the highest,50 ppb,0
same,"N: number of panels, irritation of acid reduced to give a mild acid taste",50 ppb,3
same,"X: number of panels, acid taste reduced but piercing odor characteristic to aldehydes unpleasant",50 ppb,7
same,"A: number of panels, acid taste/acid smell extreme and cause irritation",100 ppt,0
same,"B: number of panels, acid taste/acid smell slightly strong and slightly cause irritation",100 ppt,0
same,"C: number of panels, acid taste/acid smell slightly unpleasant",100 ppt,3
same,Flavor judgment: number of panels who judged acid taste/acid smell quality the highest,100 ppt,3
same,"N: number of panels, irritation of acid reduced to give a mild acid taste",100 ppt,7
same,"X: number of panels, acid taste reduced but piercing odor characteristic to aldehydes unpleasant",100 ppt,0
same,"A: number of panels, acid taste/acid smell extreme and cause irritation",500 ppt,0
same,"B: number of panels, acid taste/acid smell slightly strong and slightly cause irritation",500 ppt,2
same,"C: number of panels, acid taste/acid smell slightly unpleasant",500 ppt,3
same,Flavor judgment: number of panels who judged acid taste/acid smell quality the highest,500 ppt,0
same,"N: number of panels, irritation of acid reduced to give a mild acid taste",500 ppt,3
same,"X: number of panels, acid taste reduced but piercing odor characteristic to aldehydes unpleasant",500 ppt,2
"CCCCC/C=C\C/C=C\C=C\C=O [(E,Z,Z)-2,4,7-tridecatrienal]","A: number of panels, acid taste/acid smell extreme and cause irritation",0.005 ppt,10
same,"B: number of panels, acid taste/acid smell slightly strong and slightly cause irritation",0.005 ppt,0
same,"C: number of panels, acid taste/acid smell slightly unpleasant",0.005 ppt,0
same,Flavor judgment: number of panels who judged acid taste/acid smell quality the highest,0.005 ppt,0
same,"N: number of panels, irritation of acid reduced to give a mild acid taste",0.005 ppt,0
same,"X: number of panels, acid taste reduced but piercing odor characteristic to aldehydes unpleasant",0.005 ppt,0
same,"A: number of panels, acid taste/acid smell extreme and cause irritation",0.02 ppt,8
same,"B: number of panels, acid taste/acid smell slightly strong and slightly cause irritation",0.02 ppt,1
same,"C: number of panels, acid taste/acid smell slightly unpleasant",0.02 ppt,1
same,Flavor judgment: number of panels who judged acid taste/acid smell quality the highest,0.02 ppt,0
same,"N: number of panels, irritation of acid reduced to give a mild acid taste",0.02 ppt,0
same,"X: number of panels, acid taste reduced but piercing odor characteristic to aldehydes unpleasant",0.02 ppt,0
same,"A: number of panels, acid taste/acid smell extreme and cause irritation",0.1 ppt,7
same,"B: number of panels, acid taste/acid smell slightly strong and slightly cause irritation",0.1 ppt,2
same,"C: number of panels, acid taste/acid smell slightly unpleasant",0.1 ppt,1
same,Flavor judgment: number of panels who judged acid taste/acid smell quality the highest,0.1 ppt,0
same,"N: number of panels, irritation of acid reduced to give a mild acid taste",0.1 ppt,0
same,"X: number of panels, acid taste reduced but piercing odor characteristic to aldehydes unpleasant",0.1 ppt,0
same,"A: number of panels, acid taste/acid smell extreme and cause irritation",0.2 ppt,4
same,"B: number of panels, acid taste/acid smell slightly strong and slightly cause irritation",0.2 ppt,3
same,"C: number of panels, acid taste/acid smell slightly unpleasant",0.2 ppt,3
same,Flavor judgment: number of panels who judged acid taste/acid smell quality the highest,0.2 ppt,0
same,"N: number of panels, irritation of acid reduced to give a mild acid taste",0.2 ppt,0
same,"X: number of panels, acid taste reduced but piercing odor characteristic to aldehydes unpleasant",0.2 ppt,0
same,"A: number of panels, acid taste/acid smell extreme and cause irritation",0.5 ppt,0
same,"B: number of panels, acid taste/acid smell slightly strong and slightly cause irritation",0.5 ppt,1
same,"C: number of panels, acid taste/acid smell slightly unpleasant",0.5 ppt,3
same,Flavor judgment: number of panels who judged acid taste/acid smell quality the highest,0.5 ppt,1
same,"N: number of panels, irritation of acid reduced to give a mild acid taste",0.5 ppt,6
same,"X: number of panels, acid taste reduced but piercing odor characteristic to aldehydes unpleasant",0.5 ppt,0
same,"A: number of panels, acid taste/acid smell extreme and cause irritation",1 ppb,0
same,"B: number of panels, acid taste/acid smell slightly strong and slightly cause irritation",1 ppb,0
same,"C: number of panels, acid taste/acid smell slightly unpleasant",1 ppb,3
same,Flavor judgment: number of panels who judged acid taste/acid smell quality the highest,1 ppb,0
same,"N: number of panels, irritation of acid reduced to give a mild acid taste",1 ppb,3
same,"X: number of panels, acid taste reduced but piercing odor characteristic to aldehydes unpleasant",1 ppb,4
same,"A: number of panels, acid taste/acid smell extreme and cause irritation",1 ppt,0
same,"B: number of panels, acid taste/acid smell slightly strong and slightly cause irritation",1 ppt,1
same,"C: number of panels, acid taste/acid smell slightly unpleasant",1 ppt,2
same,Flavor judgment: number of panels who judged acid taste/acid smell quality the highest,1 ppt,3
same,"N: number of panels, irritation of acid reduced to give a mild acid taste",1 ppt,7
same,"X: number of panels, acid taste reduced but piercing odor characteristic to aldehydes unpleasant",1 ppt,0
same,"A: number of panels, acid taste/acid smell extreme and cause irritation",5 ppt,0
same,"B: number of panels, acid taste/acid smell slightly strong and slightly cause irritation",5 ppt,0
same,"C: number of panels, acid taste/acid smell slightly unpleasant",5 ppt,3
same,Flavor judgment: number of panels who judged acid taste/acid smell quality the highest,5 ppt,3
same,"N: number of panels, irritation of acid reduced to give a mild acid taste",5 ppt,7
same,"X: number of panels, acid taste reduced but piercing odor characteristic to aldehydes unpleasant",5 ppt,0
same,"A: number of panels, acid taste/acid smell extreme and cause irritation",10 ppb,0
same,"B: number of panels, acid taste/acid smell slightly strong and slightly cause irritation",10 ppb,0
same,"C: number of panels, acid taste/acid smell slightly unpleasant",10 ppb,2
same,Flavor judgment: number of panels who judged acid taste/acid smell quality the highest,10 ppb,0
same,"N: number of panels, irritation of acid reduced to give a mild acid taste",10 ppb,3
same,"X: number of panels, acid taste reduced but piercing odor characteristic to aldehydes unpleasant",10 ppb,5
same,"A: number of panels, acid taste/acid smell extreme and cause irritation",20 ppt,0
same,"B: number of panels, acid taste/acid smell slightly strong and slightly cause irritation",20 ppt,0
same,"C: number of panels, acid taste/acid smell slightly unpleasant",20 ppt,4
same,Flavor judgment: number of panels who judged acid taste/acid smell quality the highest,20 ppt,3
same,"N: number of panels, irritation of acid reduced to give a mild acid taste",20 ppt,6
same,"X: number of panels, acid taste reduced but piercing odor characteristic to aldehydes unpleasant",20 ppt,0
same,"A: number of panels, acid taste/acid smell extreme and cause irritation",50 ppb,0
same,"B: number of panels, acid taste/acid smell slightly strong and slightly cause irritation",50 ppb,0
same,"C: number of panels, acid taste/acid smell slightly unpleasant",50 ppb,1
same,Flavor judgment: number of panels who judged acid taste/acid smell quality the highest,50 ppb,0
same,"N: number of panels, irritation of acid reduced to give a mild acid taste",50 ppb,2
same,"X: number of panels, acid taste reduced but piercing odor characteristic to aldehydes unpleasant",50 ppb,7
same,"A: number of panels, acid taste/acid smell extreme and cause irritation",100 ppt,0
same,"B: number of panels, acid taste/acid smell slightly strong and slightly cause irritation",100 ppt,2
same,"C: number of panels, acid taste/acid smell slightly unpleasant",100 ppt,3
same,Flavor judgment: number of panels who judged acid taste/acid smell quality the highest,100 ppt,0
same,"N: number of panels, irritation of acid reduced to give a mild acid taste",100 ppt,4
same,"X: number of panels, acid taste reduced but piercing odor characteristic to aldehydes unpleasant",100 ppt,1
same,"A: number of panels, acid taste/acid smell extreme and cause irritation",500 ppt,0
same,"B: number of panels, acid taste/acid smell slightly strong and slightly cause irritation",500 ppt,0
same,"C: number of panels, acid taste/acid smell slightly unpleasant",500 ppt,3
same,Flavor judgment: number of panels who judged acid taste/acid smell quality the highest,500 ppt,0
same,"N: number of panels, irritation of acid reduced to give a mild acid taste",500 ppt,4
same,"X: number of panels, acid taste reduced but piercing odor characteristic to aldehydes unpleasant",500 ppt,3

# Source: US20140120232A1, “ACID TASTE/ACID SMELL-REDUCING AGENT” (T. HASEGAWA CO., LTD., priority 2011, published 2014)
